Measurements taken from patent publication US20170001988A1, “PIPERIDINE AND PIPERAZINE DERIVATIVES AND THEIR USE IN TREATING VIRAL INFECTIONS AND CANCER” (THE UNITED STATES OF AMERICA, AS REPRESENTED BY THE …, priority 2013, published 2017).
Read-outs that look alike come from different tables or passages of the source.

Legend:
HCV-Luc [1] = experiment: HCV-Luc infection assay; assay type: cell-based; details: for EC50: Hepatitis C virus
Huh7.5.1 cells = experiment: in vitro; details: human
Text: (§1) EC50 was generated using the HCV-Luc infection assay and IC50 using the ATPLite assay.
(§2) EC50 was generated using the HCV-Luc infection assay and TC50 using the ATPLite assay.
(§3) The cytotoxicity of the compounds was further evaluated in HepG2 cells and primary human hepatocytes.

in vitro = details: human
Text: as §1, §2, §3

HCV-Luc [2] = experiment: HCV-Luc assay of (S)-CCZ combinations, MacSynergy II and CalcuSyn analysis; assay type: cell-based; details: for CalcuSyn CI value: (S)-CCZ in combination with the drug named; for antiviral effect of (S)-CCZ with the drug named: combination with (S)-CCZ
Method: Direct-acting antivirals, such as telaprevir and daclatasvir, were recently approved for therapy of hepatitis C. […] Using the MacSynergy II program based on Bliss independence model, three-dimensional surface plots were generated and log volume of synergism was calculated for each combination. The results were also analyzed with the CalcuSyn program, in which the combination indices were calculated.

SMILES | CC50 (in vitro) [µM] | EC50 (HCV-Luc [1]; Table 6, read-out: EC50) [µM] | also measured
NCCOCCOCCOCCOCCN1CCN(C(c2ccccc2)c2ccc(Cl)cc2)CC1 (racemic) [(CH2CH2O)4CH2CH2NH2 (R,S), 14-(4-((4-Chlorophenyl)(phenyl)methyl)piperazin-1-yl)-3,6,9,12-tetraoxatetradecan-1-amine] | 12.2 ± 0.8 |  | EC50 (HCV-Luc [1]; Table 3, read-out: EC50): 0.004 ± 0.0022 µM; Selective Index (HCV-Luc [1]; Table 3): 3050; Selective Index (HCV-Luc [1]; Table 4): 3050; CC50 (Huh7.5.1 cells): 12.2 ± 0.8 µM
COc1ccccc1CN1CCC(N(CCc2ccccc2)Cc2ccccc2)CC1 [2-Methoxybenzyl, N-Benzyl-1-(2-methoxybenzyl)-N-phenethylpiperidin-4-amine] | 15.2 |  | EC50 (HCV-Luc [1]): 0.64 µM
c1ccc(CCN2CCC(N(CCc3ccccc3)Cc3ccccc3)CC2)cc1 [2-Phenylethyl, N-Benzyl-N,1-diphenethylpiperidin-4-amine] | > 100 | 16.2 | 
COc1cccc(CN2CCC(N(CCc3ccccc3)Cc3ccccc3)CC2)c1 [3-Methoxybenzyl, N-Benzyl-1-(3-methoxybenzyl)-N-phenethylpiperidin-4-amine] | 45.2 | 1.57 | 
Brc1ccc(CN2CCC(N(CCc3ccccc3)Cc3ccccc3)CC2)cc1 [4-Bromobenzyl, N-Benzyl-1-(4-bromobenzyl)-N-phenethylpiperidin-4-amine] | > 100 | 4.33 | 
Clc1ccc(CN2CCC(N(CCc3ccccc3)Cc3ccccc3)CC2)cc1 [4-Chlorobenzyl, N-Benzyl-1-(4-chlorobenzyl)-N-phenethylpiperidin-4-amine] | > 100 | 9.24 | 
N#Cc1ccc(CN2CCC(N(CCc3ccccc3)Cc3ccccc3)CC2)cc1 [4-Cyanobenzyl, 4-((4-(Benzyl(phenethyl)amino)piperidin-1-yl)methyl)benzonitrile] | 100 | 5.86 | 
Fc1ccc(CN2CCC(N(CCc3ccccc3)Cc3ccccc3)CC2)cc1 [4-Fluorobenzyl, N-Benzyl-1-(4-fluorobenzyl)-N-phenethylpiperidin-4-amine] | 56.3 |  | EC50 (HCV-Luc [1]): 9.6 µM
COc1ccc(CN2CCC(N(CCc3ccccc3)Cc3ccccc3)CC2)cc1 [4-Methoxybenzyl, N-Benzyl-1-(4-methoxybenzyl)-N-phenethylpiperidin-4-amine] | 27.8 |  | EC50 (HCV-Luc [1]): 4.35 µM
COC(=O)c1ccc(CN2CCC(N(CCc3ccccc3)Cc3ccccc3)CC2)cc1 [4-Methoxycarbonylbenzyl, Methyl 4-((4-(benzyl(phenethyl)amino)piperidin-1-yl)methyl)benzoate] | > 100 | 14 | 
Cc1ccc(CN2CCC(N(CCc3ccccc3)Cc3ccccc3)CC2)cc1 [4-Methylbenzyl, N-Benzyl-1-(4-methylbenzyl)-N-phenethylpiperidin-4-amine] | 40.3 | 0.74 | 
c1ccc(CCN(Cc2ccccc2)C2CCN(Cc3ccc(-c4ccccc4)cc3)CC2)cc1 [4-Phenylbenzyl, 1-([1,1′-Biphenyl]-4-ylmethyl)-N-benzyl-N-phenethylpiperidin-4-amine] | > 100 | 12.2 | 
FC(F)(F)c1ccc(CN2CCC(N(CCc3ccccc3)Cc3ccccc3)CC2)cc1 [4-Trifluoromethylbenzyl, N-Benzyl-N-phenethyl-1-(4-(trifluoromethyl)benzyl)piperidin-4-amine] | > 100 | > 10 | 
CC(=O)N1CCC(N(CCc2ccccc2)Cc2ccccc2)CC1 [Acetyl, 1-(4-(Benzyl(phenethyl)amino)piperidin-1-yl)ethanone] | 74.5 | > 31.6 | 
O=C(c1ccccc1)N1CCC(N(CCc2ccccc2)Cc2ccccc2)CC1 [Benzoyl, (4-(Benzyl(phenethyl)amino)piperidin-1-yl)(phenyl)methanone] | 94 | 24.8 | 
c1ccc(CCN(Cc2ccccc2)C2CCN(Cc3ccccc3)CC2)cc1 [Benzyl, N,1-dibenzyl-N-phenethylpiperidin-4-amine] | 30.9 | 0.32 | 
CC(C)(C)NC(=O)N[C@H](C(=O)N1C[C@H]2[C@@H]([C@H]1C(=O)NC(CC1CCC1)C(=O)C(N)=O)C2(C)C)C(C)(C)C (some centres unmarked) [Boceprevir] |  |  | CalcuSyn CI value (HCV-Luc [2]): 0.691 ± 0.114
CCCCN1CCC(N(CCc2ccccc2)Cc2ccccc2)CC1 [Butyl, N-Benzyl-1-butyl-N-phenethylpiperidin-4-amine] | 17.9 | 1.55 | 
[2H]C([2H])([2H])CN1CCC(N(CCc2ccccc2)Cc2ccccc2)CC1 [CD3CH2—, N-Benzyl-1-ethyl(2,2,2-d3)-N-phenethylpiperidin-4-amine] | 50.8 | 2.37 | 

SMILES | CC50 (in vitro) [µM] | EC50 (HCV-Luc [1]; Table 6, read-out: EC50) [µM] | also measured
[2H]C([2H])([2H])N1CCC(N(CCc2ccccc2)Cc2ccccc2)CC1 [CD3—, N-Benzyl-1-methyl(d3)-N-phenethylpiperidin-4-amine] | 100 | 7.95 | 
FC(F)(F)CN1CCC(N(CCc2ccccc2)Cc2ccccc2)CC1 [CF3CH2—, N-Benzyl-N-phenethyl-1-(2,2,2-trifluoroethyl)piperidin-4-amine] | > 100 | > 31.6 | 
Ic1ccc(CN2CCC(N(CCc3ccccc3)Cc3ccccc3)CC2)cc1 [Compound 4-Iodobenzyl, N-Benzyl-1-(4-iodobenzyl)-N-phenethylpiperidin-4-amine] | > 100 | 2.98 | 
c1ccc(CCN(Cc2ccccc2)C2CCN(C3CCCCC3)CC2)cc1 [Cyclohexyl, N-Benzyl-1-cyclohexyl-N-phenethylpiperidin-4-amine] | 33.8 | 1.5 | 
c1ccc(CCN(Cc2ccccc2)C2CCN(C3CCCC3)CC2)cc1 [Cyclopentyl, N-Benzyl-1-cyclopentyl-N-phenethylpiperidin-4-amine] | 15 | 0.48 | 
COC(=O)N[C@H](C(=O)N1CCC[C@H]1c1nc(-c2ccc(-c3ccc(-c4c[nH]c([C@@H]5CCCN5C(=O)[C@@H](NC(=O)OC)C(C)C)n4)cc3)cc2)c[nH]1)C(C)C [Daclataivir] |  |  | CalcuSyn CI value (HCV-Luc [2]): 0.427 ± 0.142
CCN1CCN([C@@H](c2ccccc2)c2ccc(Cl)cc2)CC1 [Et (S), (S)-1-((4-Chlorophenyl)(phenyl)methyl)-4-ethylpiperazine] | 40 ± 1.1 |  | EC50 (HCV-Luc [1]; Table 3, read-out: EC50): 0.02 ± 0.002 µM; CC50 (Huh7.5.1 cells): 40 ± 1.1 µM
CCN1CCC(N(CCc2ccccc2)Cc2ccccc2)CC1 [Et, N-Benzyl-1-ethyl-N-phenethylpiperidin-4-amine] | 35.3 | 0.039 | 
c1ccc(CCN(Cc2ccccc2)C2CCNCC2)cc1 [H, N-Benzyl-N-phenethylpiperidin-4-amine] | 23.5 | 0.12 | 
CC(C)CN1CCC(N(CCc2ccccc2)Cc2ccccc2)CC1 [Isobutyl, N-Benzyl-1-isobutyl-N-phenethylpiperidin-4-amine] | 37.6 | 4.76 | 
CC(C)N1CCC(N(CCc2ccccc2)Cc2ccccc2)CC1 [Isopropyl, N-Benzyl-1-isopropyl-N-phenethylpiperidin-4-amine] | 37.6 | 0.94 | 
CN1CCC(N(CCc2ccccc2)Cc2ccccc2)CC1 [Me, N-Benzyl-1-methyl-N-phenethylpiperidin-4-amine] | 41.1 | 0.92 | 
c1ccc(CCN(Cc2ccccc2)C2CCN(Cc3ccc4c(c3)OCCO4)CC2)cc1 [N-Benzyl-1-((2,3-dihydrobenzo[b][1,4]dioxin-6-yl)methyl)-N-phenethylpiperidin-4-amine] | 36.6 | 2.78 | 
c1ccc(CCN(Cc2ccccc2)C2CCN(c3ccccc3)CC2)cc1 [Phenyl, N-Benzyl-N-phenethyl-1-phenylpiperidin-4-amine] | > 100 |  | EC50 (HCV-Luc [1]): > 31.6 µM
O=[S+]([O-])(c1ccccc1)N1CCC(N(CCc2ccccc2)Cc2ccccc2)CC1 [Phenylsulfonyl, N-Benzyl-N-phenethyl-1-(phenylsulfonyl)piperidin-4-amine] | > 100 | > 32.6 | 
CCCN1CCC(N(CCc2ccccc2)Cc2ccccc2)CC1 [Propyl, N-Benzyl-N-phenethyl-1-propylpiperidin-4-amine] | 38.2 | 0.37 | 
NC(=O)c1ncn([C@@H]2O[C@H](CO)[C@@H](O)[C@H]2O)n1 [Ribavirin] |  |  | CalcuSyn CI value (HCV-Luc [2]): 0.630 ± 0.106; antiviral effect of (S)-CCZ with the drug named (HCV-Luc [2]): highly synergistic
CC(C)OC(=O)[C@H](C)N[P@](=O)(OC[C@H]1O[C@@H](n2ccc(=O)[nH]c2=O)[C@](C)(F)[C@@H]1O)Oc1ccccc1 [Sofosbuvir] |  |  | CalcuSyn CI value (HCV-Luc [2]): 0.362 ± 0.075; antiviral effect of (S)-CCZ with the drug named (HCV-Luc [2]): highly synergistic
CCC[C@H](NC(=O)[C@@H]1[C@H]2CCC[C@H]2CN1C(=O)[C@@H](NC(=O)[C@@H](NC(=O)c1cnccn1)C1CCCCC1)C(C)(C)C)C(=O)C(=O)NC1CC1 [Telaprevir] |  |  | CalcuSyn CI value (HCV-Luc [2]): 0.426 ± 0.138
